# Measured values: patent publication US20090253134A1, “Cellular Pyrogen Test” (Fraunhofer-Gesellschaft zur Forderung der angewandten …, priority 2006, published 2009)
# Entries after “also recorded” stand apart in the source; their conditions may differ.
# Assays:
# [1] = target: T1, TLR-4/CD14 (Homo sapiens, UniProt O00206+Q9Y6Y9); test: NIH-3T3 TLR-4/CD14 SEAP reporter gene pyrogen test; assay type: cell-based
# T1 construct: expressed in transfected cells; host or cells: NIH-3T3 (murine fibroblasts), clone 4/5
# T1 sequence (O00206 24-839): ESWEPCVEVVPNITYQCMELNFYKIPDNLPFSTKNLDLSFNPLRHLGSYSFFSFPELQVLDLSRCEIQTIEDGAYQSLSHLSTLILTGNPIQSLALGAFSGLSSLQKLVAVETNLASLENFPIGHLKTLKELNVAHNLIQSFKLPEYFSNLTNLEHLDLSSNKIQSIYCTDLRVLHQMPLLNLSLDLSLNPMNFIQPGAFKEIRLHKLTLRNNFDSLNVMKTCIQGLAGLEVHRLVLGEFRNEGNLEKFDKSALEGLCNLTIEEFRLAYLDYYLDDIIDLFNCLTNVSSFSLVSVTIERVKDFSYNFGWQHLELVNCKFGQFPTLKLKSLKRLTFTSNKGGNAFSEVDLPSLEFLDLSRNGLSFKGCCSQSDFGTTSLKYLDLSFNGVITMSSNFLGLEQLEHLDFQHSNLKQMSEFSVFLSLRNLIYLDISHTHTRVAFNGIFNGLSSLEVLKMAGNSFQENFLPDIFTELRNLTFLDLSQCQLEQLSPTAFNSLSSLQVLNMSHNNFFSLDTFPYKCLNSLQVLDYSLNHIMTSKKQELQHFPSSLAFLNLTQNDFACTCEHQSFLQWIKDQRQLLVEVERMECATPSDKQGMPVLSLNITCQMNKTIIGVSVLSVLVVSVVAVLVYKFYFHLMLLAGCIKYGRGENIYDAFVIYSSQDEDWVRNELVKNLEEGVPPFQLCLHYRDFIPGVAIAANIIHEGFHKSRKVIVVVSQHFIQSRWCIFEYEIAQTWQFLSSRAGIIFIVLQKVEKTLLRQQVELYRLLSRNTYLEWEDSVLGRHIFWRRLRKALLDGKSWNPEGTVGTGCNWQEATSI
# T1 sequence (Q9Y6Y9 17-160 limits assumed): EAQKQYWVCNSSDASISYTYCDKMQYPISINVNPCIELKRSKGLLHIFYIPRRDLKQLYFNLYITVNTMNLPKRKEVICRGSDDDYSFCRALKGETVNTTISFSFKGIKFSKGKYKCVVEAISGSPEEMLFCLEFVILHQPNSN
# Description: The cell line NIH-3T3 was transfected with a TLR-4/CD14 complex as well as the reporter gene plasmid SEAP/ELAM-1.
# The endotoxin (LPS)-mediated induction of TLR-4 leads according to a signal cascade to activation of the transcription factor NF-κB. Expression of the reporter gene SEAP is controlled by an ELAM-1 promoter inducible by NF-κB. NF-κB activation and therefore specifically secretion of SEAP then occurs on induction of TLR-4 by the endotoxin lipopolysaccharide LPS.
# NIH-3T3 TLR-4/CD14 clone 4/5 P35 in a density of 30,000 to 200,000 cells/well (24-well) (corresponding cell count for other well volume) are inoculated in 500 μL/well in 0.5% FCS medium o/n for adhesion.
# On the next day detection occurs by incubation with 300 μL/well detection medium, which is added directly to the induced cells: in the induced cells SEAP activity converts the substrate BCIP in the detection medium to a dark blue insoluble end product (indigo). As an alternative SEAP activity in the induced cells converts the substrate pNPP in the detection medium to a light yellow soluble color complex, which is determined photometrically at about 405 nm. The photometric analysis occurs about 2 hours after addition of the detection medium.
# In one variant transfected cell lines are frozen in the corresponding assay format, here: a cell culture-well-plate (multiwell plate) in corresponding density (200,000 cells/well in 500 μL each (in 24-well)).
# After thawing of the kit, addition of DMEM culture medium occurs for adhesive of the cells overnight. A medium with HEPES buffer permits incubation of the cell test in a heating cabinet, i.e., without CO2 gassing. Induction is carried out per test by addition of 100 ng/mL LPS. The detection is conducted after 24 hours by addition of 300 μL/well BCIP detection medium.
# On a multiwell plate (96-well) NIH-3T3 TLR-4/CD14 SEAP P40 cells were frozen in a density of 30,000 cells/well in 100 μL medium (DMEM 80 mmol/L HEPES, 30% FCS and 5% DMSO) in suspension at −80° C.
# After 72 hours to 4 weeks at −80° C. the cells were thawed by addition of 100 μL medium (10% FCS) at 37° C. […]
# [2] = target: T2, TLR-5 (Homo sapiens, UniProt O60602); test: Comparative TLR-5 test with HELA cells transfected with TLR-5 SEAP; assay type: cell-based; parameters: expressed in transfected cells; conditions: 2 μg/mL flagellin; induced and noninduced controls both intensely blue
# T2 sequence (O60602 21-858): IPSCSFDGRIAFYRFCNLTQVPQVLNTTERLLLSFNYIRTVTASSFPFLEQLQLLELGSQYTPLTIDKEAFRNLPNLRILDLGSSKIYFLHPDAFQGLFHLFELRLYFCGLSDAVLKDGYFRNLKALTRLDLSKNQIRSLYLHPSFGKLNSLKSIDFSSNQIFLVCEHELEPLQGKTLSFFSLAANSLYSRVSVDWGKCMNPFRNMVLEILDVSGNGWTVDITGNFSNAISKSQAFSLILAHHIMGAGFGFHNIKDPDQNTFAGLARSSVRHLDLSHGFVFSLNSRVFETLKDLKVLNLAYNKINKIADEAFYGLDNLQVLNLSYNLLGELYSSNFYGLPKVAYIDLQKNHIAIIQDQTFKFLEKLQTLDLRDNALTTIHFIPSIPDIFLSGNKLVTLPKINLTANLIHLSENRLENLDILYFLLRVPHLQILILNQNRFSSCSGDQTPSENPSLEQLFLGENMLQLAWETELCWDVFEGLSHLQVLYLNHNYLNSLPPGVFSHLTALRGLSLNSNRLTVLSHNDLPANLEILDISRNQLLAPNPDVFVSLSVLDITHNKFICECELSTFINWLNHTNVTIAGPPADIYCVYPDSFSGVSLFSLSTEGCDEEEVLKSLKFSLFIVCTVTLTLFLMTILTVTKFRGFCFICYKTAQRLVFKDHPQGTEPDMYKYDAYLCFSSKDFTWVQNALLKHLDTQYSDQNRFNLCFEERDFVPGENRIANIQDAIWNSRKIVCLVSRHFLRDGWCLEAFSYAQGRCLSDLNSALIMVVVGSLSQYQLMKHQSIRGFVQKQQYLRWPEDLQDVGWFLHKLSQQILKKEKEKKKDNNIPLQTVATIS
# Protocol: FIG. 13 comparative experiment: TLR-5 test with HELA cells transfected with TLR-5 SEAP induced with 2 μg/mL flagellin; both the induced cells and the noninduced controls show intense blue coloration.
# [3] = target: T2, TLR-5; test: NIH-3T3 TLR-5 SEAP reporter gene test; assay type: cell-based; parameters: expressed in transfected cells; host or cells: NIH-3T3 (murine fibroblasts); conditions: 2 μg/mL flagellin; BCIP
# Protocol: The cell line NIH-3T3 was transfected with TLR-5 and the reporter gene plasmid SEAP. The measures correspond to example 1.
# NIH-3T3 clone TLR-5 was inoculated in a density of 30,000 to 200,000 cells/well (24-well) in 500 μL/well in 0.5% FCS medium; induction occurs with 2 μg/mL flagellin; detection by incubation with 300 μL/well detection medium with BCIP.
# [4] = target: T3, TLR-4/CD14 (Homo sapiens, UniProt O00206); test: Comparative TLR-4 colour test with HEK blue 293 and other 293 fibroblasts transfected with TLR-4/CD14 SEAP; assay type: cell-based; conditions: 100 ng/mL LPS; induced and noninduced controls both turn blue
# T3 construct: expressed in transfected cells; host or cells: HEK blue 293 and other 293 cells (clones K2, K4)
# T3 sequence (O00206 24-839): as the sequence (O00206 24-839) above
# Protocol: (§1) HEK blue 293 fibroblasts and other 293 fibroblasts were transfected with TLR-4/CD14 SEAP and induced with 100 ng/mL LPS. All other process parameters were chosen as in example 1 according to the invention.
# [5] = target: T3, TLR-4/CD14; test: SDS-PAGE/Western Blot analysis of SEAP expression in HEK293 and other 293 cells transfected with TLR-4/CD14 SEAP; assay type: cell-based; conditions: 100 ng/mL LPS; cell pellets
# Protocol: as §1
# In addition, a Western Blot analysis of gene expression was conducted in known fashion: first antibody: anti-SEAP; conjugated second antibody: anti-mouse POD; marker: SeeBlue® Plus2; prestained standard.
# [6] = tested on: Limulus amebocyte lysate proenzyme; conditions: cited from earlier work
# [7] = tested on: human whole blood cells; conditions: cited from earlier work
substance,measurement,setting,value
Poly IC,color change of detection medium (specificity),[1]; induced with 25 μg/mL nonspecific pyrogen each,no color change
flagellin,specific induction / color test,[2],No specific induction is possible
same,blue coloration of induced cells,[3],specific blue coloration
lipopolysaccharide [LPS],"blue coloration of induced cells, frozen and rethawed cells","[1]; 100 pg/mL, NIH-3T3 TLR-4/CD14 SEAP P40, induction after 24 hours, detection after 3 hours",specific blue coloration
same,"SEAP activity, BCIP color reaction after thawing","[1]; 100 ng/mL LPS, thawed NIH-3T3 clone 4/5 TLR-4/CD14, BCIP",deep dark blue
same,specific induction / color test,[4],no specific induction; also recorded: a specific detection is not possible
same,"alkaline phosphatase (SEAP) expression, induced vs noninduced cells",[5],in the same amount
same,detection limit / sensitivity of LAL,[6],3 pg/mL
same,sensitivity of IPT,[7],20 to 50 pg/mL
